Measurements published in article PMC4794652, “Identification of E-cadherin signature motifs functioning as cleavage sites for Helicobacter pylori HtrA” (Scientific Reports, 2016).
“Also recorded” adds a separate entry of the source. No end group written: not given here.

Assays:
H. pylori HtrA [1] = assay: In vitro HtrA-mediated E-cadherin (rCdh1) cleavage, inhibition by peptides (Western blot); type: biochemical
Procedure: (§1) Proteins were separated by SDS PAGE and analysed by Western blot using specific antibodies against HtrA[21], the extracellular domains EC5 (H108, Santa Cruz Biotechnology and ab40772, Abcam), EC1 (SHE78-7, Invitrogen) and EC2 (HecD1, Calbiochem) of E-cadherin, or the intracellular domain (24E10, Cell Signaling). His6-tagged proteins were analysed using an anti-His5-antibody (Qiagen). GAPDH (Cell Signaling) and β-actin (Sigma) were detected as loading controls. Where indicated, signals of protein bands were quantified using the ImageLab software (BioRad). Graphical presentation and statistical evaluations (Student’s t-test) were performed with GraphPad Prism 5 and p-values of ***p ≤ 0.001, **p ≤ 0.01 and *p ≤ 0.05 were considered statistically significant.
Purification of recombinant H. pylori HtrA and in vitro cleavage assays have been described elsewhere. Briefly, 200 ng recombinant HtrA was incubated with 50 ng recombinant hCdh1 (R&D Systems) in 50 mM HEPES pH 7.4 and 100 μM EDTA for 16 h (or for the indicated time periods) at 37 °C. Where indicated, test peptides were added.

H. pylori HtrA [2] = assay: Competition experiment: interference with P1-mediated HtrA inhibition (rCdh1 cleavage, Western blot); type: biochemical; conditions: 100 μM peptides, 50 ng rCdh1, 200 ng rHtrA, 16 h, 37 °C, in words (Fig. S4B)
Procedure: as §1
Purification of recombinant H. pylori HtrA and in vitro cleavage assays have been described elsewhere. […]
Figure S4. […] (A) Synthesized peptides based on the most frequent detected peptide during label-free mass spectrometry-based proteomic analysis. […] The cleavage fragments were analyzed by Western blot and detected using an antibody against the EC5. (D) Quantitative analysis of the relative amount of β-actin in whole cell lysates (WCL) of the H. pylor i-infected cells by blot densitometry from […]
1 Niessen, C. M. & Gumbiner, B. M. Cadherin-mediated cell sorting not determined by binding or […]

[3] = test system: HtrA wild-type (H. pylori); assay: Direct peptide binding to immobilised HtrA by surface plasmon resonance (SPR); conditions: for direct binding to immobilised HtrA (SPR response) / concentration-dependent SPR binding to HtrA, C-terminal carboxyl vs amide: SPR-2, 25 °C, 25 μl/min; for direct binding to immobilised HtrA (SPR response): HBS-P (10 mM HEPES-buffered saline, 150 mM NaCl, 0.005% Tween), against significance threshold, in words (Fig. 4C); for concentration-dependent SPR binding to HtrA, C-terminal carboxyl vs amide: HBS-P, in words (Fig. 4D, S3B, S3C)
Procedure: Affinity studies were performed on a Sierra Sensors GmbH SPR-2 instrument. Measurements were performed at 25 °C with a flow rate of 25 μl/min. Carboxymethyl dextran matrix high-density sensor chips (SPR-2 Affinity Sensor HC, batch 10-BC-04-154-A, Sierra Sensors) were used to immobilise 20 μg/ml HtrA wild-type (wt) in 10 mM HEPES (HEPES buffer 1 M solution, pH 7.3, Fisher Scientific) by adding 198 μl amine coupling with an activation solution (200 mM N-ethyl-3-(3-dimethylaminopropyl)-carbodiimide [EDC] and 50 mM N-hydroxysuccinimide [NHS]). The SPR sensor surface was loaded with 100 μl protein and subsequently treated by injecting 192 μl of 1 M ethanolamine at pH 8.5 for inactivation of excess coupling groups. HBS-P (10 mM HEPES-buffered saline, 150 mM NaCl, 0.005% Tween) served as running and sample buffer for peptide measurements. Peptide samples were directly dissolved in HBS-P buffer. The experiments with the non-peptidic compounds were performed utilising HBS-PD running buffer (10 mM HEPES-buffered saline with 3% DMSO, 150 mM NaCl, 0.005% Tween).

[4] = test system: H. pylori transmigration across MKN-28 cells; assay: Transmigration of H. pylori across polarised MKN-28 cell monolayer (transwell filter assay); type: cell-based, H. pylori; human (MKN-28 cells); conditions: 100 μM, 200 μM, 500 μM P1; MOI 50; cfu from basal chamber; n = 3, mean ± std dev; in words (Fig. 5C)
From the text: (§2) The human gastric adenocarcinoma cell line AGS is E-cadherin-negative and was derived from an adenocarcinoma of the stomach of a person (ECACC, 89090402). AGS cells expressing hCdh1 were generated by transfection using a plasmid containing E-cadherin wild-type cDNA[50] which has been kindly provided by Rohan D. Teasdale (University of Queensland, Australia). E-cadherin-positive MKN-28 cells (JCRB, 0253, obtained from the Max-Planck Institute for Infection Biology) were originally described as being isolated from a moderately differentiated tubular adenocarcinoma and have been frequently used to study E-cadherin-dependent processes. The gastric epithelial NCI-N87 cells (ATCC, CRL-5822) were included as an additional E-cadherin-expressing cell line[24] and were derived from metastasis in the liver. All cells have been described previously[24][51] and were grown in RPMI 1640 medium containing 4 mM glutamine (Invitrogen) and 10% FCS (Sigma) in a humidified atmosphere at 37 °C. […] Adherence of H. pylori was quantitated in a cfu (colony-forming unit) assay. […] The number of cfu was determined by growth on agar plates for 72 h. […] The number of transmigrated bacteria was determined as cfu by taking aliquots from the basal chambers. […]

[5] = test system: HtrA in H. pylori-infected AGS cells; assay: Inhibition of HtrA in H. pylori-infected AGS cells transfected with hCdh1 (formation of 90 kDa hCdh1 NTF fragment); type: cell-based, H. pylori; human (AGS cells); conditions: transfected AGS cells expressing hCdh1, H. pylori infection 16 h, 50 μl supernatant; blot densitometry, three independent experiments; in words (Fig. 5B)
Procedure: Figure 5 Inhibition of HtrA-mediated E-cadherin cleavage. (A) 50 ng rCdh1 was incubated with 200 ng HtrA and indicated concentrations of P1. rCdh1 fragments and HtrA were detected using specific antibodies. (B) Transfected AGS cells expressing hCdh1 were infected with H. pylori (Hp) or left untreated (–) for 16 h. 50 μl aliquots of the supernatants were separated by SDS PAGE and blotted onto membranes. The 90 kDa hCdh1^NTF fragment was detected by Western blots. The relative amount of hCdh1^NTF fragment was quantified by blot densitometry from three independent experiments. […] (C) Polarised MKN-28 cells grown on transwell filters were infected with H. pylori in the presence and absence of peptide P1 at different concentrations (100 μM, 200 μM, 500 μM). Bacteria that had transmigrated across the MKN-28 monolayer on the filter were counted (n = 3, mean ± std dev).
The human gastric adenocarcinoma cell line AGS is E-cadherin-negative and was derived from an adenocarcinoma of the stomach of a person (ECACC, 89090402). […] Adherence of H. pylori was quantitated in a cfu (colony-forming unit) assay. […] The number of cfu was determined by growth on agar plates for 72 h. […] The number of transmigrated bacteria was determined as cfu by taking aliquots from the basal chambers. […]

[6] = test system: HtrA in H. pylori infections of several other cell lines; assay: Inhibition of hCdh1 NTF formation in H. pylori infections of several other cell lines; type: cell-based; conditions: different infection doses, data not shown, in words
From the text: as §2

Substance: TGTLLLI [Peptide P1_NT, short peptide P1_NT, contains the hydrophobic amino acid stretch TGTLLLI]
- blocking of HtrA-induced E-cadherin cleavage, 7-residue N-terminal peptides (H. pylori HtrA [1]; 100 μM peptide, 50 ng rCdh1, 200 ng rHtrA, 16 h, 37 °C, in words (Fig. S4B)): None of these peptides blocked HtrA-induced E-cadherin cleavage
- interference with P1-mediated HtrA inhibition (H. pylori HtrA [2]): None of these peptides blocked HtrA-induced E-cadherin cleavage or interfered with P1-mediated HtrA inhibition

Substance: NDNAPIPEPR [Peptide P5]
- direct binding to immobilised HtrA (SPR response) [3]: positive binding response above the significance threshold

Substance: TGTLLLILSDVNDNAPIPEPR [Peptide P1]
- inhibition of in vitro HtrA-mediated E-cadherin cleavage (H. pylori HtrA [1]; 100 μM peptide, 200 ng HtrA, 50 ng rCdh1, 50 mM HEPES pH 7.4, 100 μM EDTA, 16 h, 37 °C, Western blot, in words (Fig. 4A,B)): effectively inhibited in vitro HtrA-mediated E-cadherin cleavage; also recorded: efficiently inhibited HtrA-mediated E-cadherin cleavage
- inhibition of HtrA-mediated rCdh1 cleavage, concentration dependence (H. pylori HtrA [1]; indicated concentrations of P1, 50 ng rCdh1, 200 ng HtrA, Western blot, in words (Fig. 5A)): strongly inhibited HtrA-mediated rCdh1 cleavage in a concentration-dependent manner
- inhibition of HtrA-mediated E-cadherin cleavage in vitro (summary) (H. pylori HtrA [1]; summary statement without concentration, in words): efficiently blocked E-cadherin cleavage in vitro
- H. pylori transmigration across polarised MKN-28 monolayer [4]: strong concentration-dependent reduction of H. pylori transmigration; also recorded: inhibition of H. pylori transmigration
- direct binding to immobilised HtrA (SPR response) [3]: strong binding
- concentration-dependent SPR binding to HtrA, C-terminal carboxyl vs amide ([3]; listed as P1-OH): concentration-dependent binding; also recorded: stronger SPR signals; also recorded: greater SPR response than its amide counterpart
- binding specificity for HtrA ([3]; in words): binds with high specificity
- formation of hCdh1 NTF fragment (bioactivity in H. pylori-infected AGS cells) [5]: significant dose-dependent decrease in the formation of the hCdh1^NTF; also recorded: weaker, but still significant at higher concentrations
- decrease in formation of hCdh1 NTF in other cell lines and infection doses [6]: This effect was also observed in H. pylori infections of several other cell lines and at different infection doses

Substance: P1-NH2: P1 with a C-terminal alpha-amide (TGTLLLILSDVNDNAPIPEPR-NH2) [Peptide P1-NH2]
- concentration-dependent SPR binding to HtrA, C-terminal carboxyl vs amide [3]: concentration-dependent binding
